Measurements reported in PMC10927086, “Effects of structurally distinct human HDAC6 and HDAC6/HDAC8 inhibitors against S. mansoni larval and adult worm stages” (PLOS Neglected Tropical Diseases, 2024).

Tests used:
[1] = tested on: S. mansoni eggs laid by worm pairs; experiment: Egg counts and egg maturation staging (Vogel and Prata) in vitro; assay type: cell-based, Schistosoma mansoni; details: exp4
Text: The eggs produced by worm pairs in vitro were counted at day 3 upon treatment using an inverted Leica DM IL microscope (Leica Microsystems, Wetzlar, Germany). Images were captured with a BX41 Olympus (Olympus, Tokyo, Japan) microscope and a brightfield objective 10× served by an Olympus DP23 microscope digital camera and visualized using “CellSens Entry” software (version 3.1.1). Egg maturation morphological score was assigned based on the Vogel and Prata’s staging system of egg maturation previously reported.
Therefore at 72 h upon worm pairs treatment the eggs were counted and classified by microscopic observation according to the Vogel and Prata staging system of egg maturation and grouped as immature (stages I and II), intermediate/developed (stages III–V), viable or damaged eggs.
Panel B. Histograms represent the percentages of eggs at different maturation stages +/- SEM counted at 72 h after treatment; 5–6 microscopy images of at least 3 independent experiments were analyzed. Filled red triangles indicate viable eggs at stages I–II (immature); empty red triangles indicate damaged/morphological abnormal eggs at stages I–II (immature); filled red arrows indicate viable eggs at stages III–V (intermediate/developed); empty red arrows indicate damaged/morphological abnormal eggs at stages III-V; ef, egg fragments; sp, sperm cells; oc, oocyte. Scale Bars = 200 μm.

[2] = MTT cytotoxicity assay on L929 fibroblasts; assay type: cell-based, murine; details: mouse, compounds 100-0.78 μM, GA 10-0.078 μM, 2 independent experiments
Procedure: (§1) The NCTC clone 929 (L-929) murine fibroblast isolated from subcutaneous connective tissue (ATCC-CCL-1) were cultured in Dulbecco’s Modified Eagle Medium (DMEM) supplemented with 10 mM Hepes (pH 6.98–7.30), 1 mM l-glutamine, 100 U/ml of penicillin/streptomycin (BioWhittaker, Lonza, EuroClone SpA), and heat-inactivated 10% FBS. All cells were cultured at 37°C in a 5% CO2 humidified incubator.
(§2) The MTT method was employed as previously described to determine the viability of fibroblast cell lines. Briefly, cells seeded into 96-well plates at a density of 20,000 cells/well after overnight incubation, were exposed to selected compounds at the indicated concentrations for 24–72 h. Next they were gently washed, incubated with MTT (bromuro di 3-(4,5-dimetiltiazol-2-il)-2,5-diphenyltetrazolium) for 4 h, and processed for color detection with DMSO. The resulting purple solution was spectrophotometrically measured at 570 nm using a Varioskan Lux instrument and Skanit software (Thermo Fisher Scientific).
(§3) The optical density values for both assays were expressed as a percentage of cell survival and normalized with the value of cells treated with vehicle (DMSO), and the data were analyzed using GraphPad Prism v9.5.1 software (San Diego, CA, USA).
(§4) The cytotoxicity of the hit compounds was assessed in two independent experiments on murine L929 and human BJ fibroblasts at 24 h by MTT assays. Vehicle (DMSO) and Gambogic acid (GA) were used as negative and positive control respectively. The compounds show a safe profile on both cell lines (S2 Table).
(§5) The IC50(μM) shown was calculated by dose-response curves of the compounds on murine L929 and human BJ fibroblast cells. […] The data are representative of 2 independent experiments. Gambogic acid (GA) and vehicle (DMSO) were used as positive and negative controls respectively. (DOCX)

[3] = MTT cytotoxicity assay on BJ fibroblasts; assay type: cell-based; details: human, compounds 100-0.78 μM, GA 10-0.078 μM, 2 independent experiments
Procedure: as §1, §2, §3, §4, §5

SMILES | % Stage I/II damaged [1] [%] | % Stage I/II viable [1] [%] | %Stage II/IV/V viable [1] [%] | %Stage III/IV/V damaged [1] [%] | Stage I/II damaged counts [1] | Stage I/II viable (egg counts) [1] | Stage II/IV/V viable (egg counts) [1] | Stage III/IV/V damaged (egg counts) [1] | egg counts [1] | IC50 at 24 h [2] [nM] | IC50 at 24 h [3] [nM]
CC(/C=C/C(=O)NO)=C\[C@@H](C)C(=O)c1ccc(N(C)C)cc1 [TSA, Trichostatin A, reference compound] | 100.0 | 0.0 | 0.0 | 0.0 | 1431 | 0 | 0 | 0 | 1431 |  | 
CC(C)=CCC[C@]1(C)C=Cc2c(O)c3c(c(CC=C(C)C)c2O1)O[C@]12C(=C[C@@H]4C[C@H]1C(C)(C)O[C@@]2(C/C=C(/C)C(=O)O)C4=O)C3=O [GA, Gambogic acid, reference compound] |  |  |  |  |  |  |  |  |  | 500 | 350
